Results taken from patent US4169096A, “Antibiotic compounds” (priority 1977, dated 1979).
In brackets after ≈: the same amount, converted by molar mass. Like-named read-outs stand apart in the source and are kept apart here.

Columns and labels:
[1] = system: Escherichia coli K-12 A9632; assay: MIC, serial two-fold agar dilution, aerobic bacteria; settings: K12A9632
S. pyogenes A20201 [2] = assay: Systemic infection with S. pyogenes in mice; type: in vivo; settings: just before challenge, determined after 5 days
Sarcina lutea PCI-1001 = assay: MIC, serial two-fold agar dilution, aerobic bacteria; type: cell-based; settings: Micrococcus luteus, PCI1001; Nutrient agar (Eiken); read-out: MIC
C. perfringens A9635 [3] = assay: microbe, parasite or virus in culture; type: cell-based; settings: Clostridium perfringens
[4] = system: Escherichia coli Juhl A15119; assay: MIC, serial two-fold agar dilution, aerobic bacteria; type: cell-based; settings: JUHLA15119
B. fragilis A20928-1 = assay: Inoculum size effect on MIC, GAM agar; type: cell-based; settings: Bacteroides fragilis, A209281; inoculum size 1.2 × 10^6 cell/ml
[5] = system: Bacteroides fragilis A20935; assay: microbe, parasite or virus in culture
[6] = system: Staphylococcus aureus 209P; assay: MIC, serial two-fold agar dilution, aerobic bacteria; type: cell-based; settings: Nutrient agar (Eiken)
[7] = system: Neisseria gonorrhoeae A20154; assay: as above; type: cell-based; settings: GC medium (Eiken)
[8] = system: aerobic and anaerobic bacteria; assay: Antibacterial activity and spectrum (in words); type: cell-based
[9] = system: Streptococcus viridans A21354; assay: MIC, serial two-fold agar dilution, aerobic bacteria; type: cell-based; settings: GC medium (Eiken)
S. pyogenes A20201 [10] = assay: Bactericidal activity (MIC & MBC); type: cell-based; settings: Streptococcus pyogenes, A20201, 18 h
aerobic organisms = assay: Antibacterial activity against aerobic bacteria (in words); type: cell-based; settings: Bacillus species, streptococci, Neisseria meningtidis, N. gonorrhoeae, Hemophilus influenzae
[11] = system: two anaerobic and one aerobic organisms; assay: Bactericidal potential (in words); type: cell-based
[12] = system: Pseudomonas aeruginosa A9843; assay: MIC, serial two-fold agar dilution, aerobic bacteria; type: cell-based; settings: test medium not given
[13] = system: Bacteroides fragilis A20932; assay: microbe, parasite or virus in culture
[14] = system: Bacteroides fragilis A20930; assay: microbe, parasite or virus in culture
[15] = system: Serratia marcescens A20019; assay: MIC, serial two-fold agar dilution, aerobic bacteria; type: cell-based; settings: Nutrient agar (Eiken), read-out: MIC
[16] = system: Diplococcus pneumoniae A9585; assay: as above; type: cell-based; settings: Streptococcus pneumoniae, GC medium (Eiken)
C. perfringens A9635 [17] = assay: microbe, parasite or virus in culture; type: cell-based, Clostridium perfringens
[18] = system: Neisseria meningitidis A21496; assay: MIC, serial two-fold agar dilution, aerobic bacteria; type: cell-based; settings: GC medium (Eiken)
[19] = system: Veillonella parvula ATCC 17745; assay: microbe, parasite or virus in culture; settings: ATCC17745
[20] = system: Streptococcus pyogenes A20201; assay: MIC, serial two-fold agar dilution, aerobic bacteria; type: cell-based; settings: GC medium (Eiken)
[21] = system: Fusobacterium mortiferum ATCC 9817; assay: microbe, parasite or virus in culture; settings: ATCC9817
[22] = system: Streptococcus pyogenes A9604; assay: MIC, serial two-fold agar dilution, aerobic bacteria; type: cell-based; settings: GC medium (Eiken)
[23] = system: Sphaerophorus necrophorus A15202; assay: microbe, parasite or virus in culture; settings: Fusobacterium necrophorum
[24] = system: two anaerobic organisms (B. fragilis and C. perfringens); type: cell-based; settings: broth dilution method
[25] = pKa' by titration in aqueous ethanol; type: physicochemical; settings: 50% aqueous ethanol
[26] = system: Acidoaminococcus fermentans ATCC 25085; assay: microbe, parasite or virus in culture
[27] = system: Klebsiella pneumoniae A9678; assay: MIC, serial two-fold agar dilution, aerobic bacteria; type: cell-based; settings: Nutrient agar (Eiken), read-out: MIC
C. perfringens A9635 [28] = assay: microbe, parasite or virus in culture; type: cell-based; settings: Clostridium perfringens; remark: listed apart in the source
[29] = system: Peptococcus aerogenes ATCC 14963; assay: microbe, parasite or virus in culture; settings: Peptoniphilus asaccharolyticus, ATCC14963
Micrococcus flavus = assay: MIC, serial two-fold agar dilution, aerobic bacteria; type: cell-based
[30] = system: Bacillus cereus ATCC 10702 A; assay: as above; type: cell-based; settings: ATCC10702
[31] = system: Peptocuccus prevotii ATCC 9321; assay: microbe, parasite or virus in culture
[32] = system: Hemophilus influenzae A9832; assay: MIC, serial two-fold agar dilution, aerobic bacteria; type: cell-based; settings: Haemophilus influenzae, GC medium (Eiken)
Stability in solution = type: physicochemical
Proteus morganii A9553 = assay: MIC, serial two-fold agar dilution, aerobic bacteria; type: cell-based; settings: Morganella morganii, Nutrient agar (Eiken)
[33] = system: Fusobacterium varium ATCC 8501; assay: microbe, parasite or virus in culture; settings: ATCC8501

For `COC(=O)C1C(C)OC2(C)CC(=O)C3OC12OC(C(C)/C=C(C)/C=C/C(=O)C1=C(O)CN(C)C1=O)C3C` (stereo not drawn) [Bu-2313A], the MIC [1] was > 100 µg/mL, the ED50 (S. pyogenes A20201 [2]; Streptococcus pyogenes, A20201, 120 h, sc, read-out: PD50) was 7.6 mg/kg and the PD50 (S. pyogenes A20201 [2]; po, NA: no activity) was “NA at 25”. The MIC (Sarcina lutea PCI-1001) was 25 µg/mL (≈ 48.3 µM), the MIC (C. perfringens A9635 [3]; A9635) was 0.1 µg/mL (≈ 0.193 µM) and the MBC (C. perfringens A9635 [3]; A9635, 18 h) was 12.5 µg/mL (≈ 24.2 µM). The MIC [4] was > 100 µg/mL, the LD50 (in vivo; ip, LD50, ip) was 14 mg/kg and the LD50 (in vivo; po, LD50, po) was 90 mg/kg. It also gave an LD50 (in vivo; sc, LD50, sc) of 90 mg/kg, an MIC (B. fragilis A20928-1) of 0.1 µg/mL (≈ 0.193 µM) and an MIC [5] of 0.2 µg/mL (≈ 0.386 µM). For the same molecule, the MIC [6] was 25 µg/mL (≈ 48.3 µM), the MIC [7] was 0.8 µg/mL (≈ 1.55 µM) and the antibacterial activity [8] was “exhibit antibacterial activity against a variety of anaerobic bacteria and some aerobic bacteria”. For the same molecule, the “comparative activity and antibacterial spectrum” value ([8]; in vitro) was “very similar to those of tirandamycin”, the MIC [9] was 0.8 µg/mL (≈ 1.55 µM) and the MBC (S. pyogenes A20201 [10]) was 12.5 µg/mL (≈ 24.2 µM). For the same molecule, the “susceptibility of aerobic strains” value (aerobic organisms) was “susceptible”, the antibacterial action [11] was “bacteriostatic rather than bactericidal” and the MIC [12] was > 100 µg/mL. The MIC [13] was 0.2 µg/mL (≈ 0.386 µM), the MIC [14] was 0.2 µg/mL (≈ 0.386 µM) and the MIC [15] was > 100 µg/mL. For the same molecule, the MIC [16] was 0.8 µg/mL (≈ 1.55 µM), the MIC (C. perfringens A9635 [17]; Clostridium perfringens, A9635, read-out: MIC in GAM agar) was 0.1 µg/mL (≈ 0.193 µM) and the “MIC in GAM agar” value (C. perfringens A9635 [17]; inoculum size 7 × 10^6 cell/ml) was 0.1 µg/mL (≈ 0.193 µM). The MIC [18] was 3.1 µg/mL (≈ 5.99 µM), the MIC [19] was 0.2 µg/mL (≈ 0.386 µM) and the MIC [20] was 0.8 µg/mL (≈ 1.55 µM). The MIC [21] was 0.2 µg/mL (≈ 0.386 µM), the MIC [22] was 0.8 µg/mL (≈ 1.55 µM) and the MIC [23] was 0.2 µg/mL (≈ 0.386 µM). For the same molecule, the “influence of inoculum size on MIC” value [24] was “greatly affected by inoculum size”, the pKa [25] was 5.2 and the MIC [26] was 0.2 µg/mL (≈ 0.386 µM). For the same molecule, the MIC [27] was > 100 µg/mL, the MIC (C. perfringens A9635 [28]; A9635, read-out: MIC in GAM broth, inoculum size […] 10^5 cell/ml) was 0.1 µg/mL (≈ 0.193 µM) and the MIC (C. perfringens A9635 [28]; A9635, read-out: MIC in GAM broth, inoculum size […] 10^6 cell/ml) was 100 µg/mL (≈ 193 µM). The MIC [29] was 0.2 µg/mL (≈ 0.386 µM), the MIC (Micrococcus flavus) was 6.3 µg/mL (≈ 12.2 µM) and the MIC [30] was 0.8 µg/mL (≈ 1.55 µM). For the same molecule, the MIC [31] was 0.2 µg/mL (≈ 0.386 µM), the MIC [32] was 0.8 µg/mL (≈ 1.55 µM) and the stability (Stability in solution; acidic solution) was “stable”. For the same molecule, the stability (Stability in solution; alkaline solution, N/10 NaOH, room temperature, overnight) was “inactivated”, the MIC (Proteus morganii A9553) was > 100 µg/mL and the MIC [33] was 0.1 µg/mL (≈ 0.193 µM).
